According to US20060293231A1, “Method for enhancing bone formation” (priority 2004, published 2006):
Values joined by “and” are separate entries in the source; they are usually repeats but may differ in a detail not shown here. Equal values may be shown once. “Also recorded” adds a separate entry of the source.

What was measured:
Format in all cases: cell-based, human
[1] = test system: platelet-rich plasma (PRP); assay: Clotting time of platelet-rich plasma (visual)
Experimental: (§1) PRP composites were prepared by mixing PRP and TRAP with bone substitutes commonly utilized in the clinical setting. Twenty four-well plates (Corning Inc., Corning, N.Y.) were coated with 1% bovine serum albumin (Sigma, St. Louis, Mo.) and incubated for 1.5 hours at 37° C. Sterilized BioOss (25 mg, 0.5-1.0 mm), AlloGro (25 mg), and 45S5 Bioactive Glass (25 mg, […]) were uniformly dispersed within the wells. Fresh PRP (0.5 ml) aliquots were then dispensed into the pre-coated 24-well plates, and 30 μl of 10% calcium chloride solution were added to each well. Experiments were performed in triplicate (n=3) with the addition of bovine thrombin (75 units) or thrombin receptor activating peptide (TRAP, H2N-Ser-Phe-Leu-Leu Arg-Asn-NH2). TRAP was used to clot PRP for all bone substitute groups examined. • Growth Factor Release—Effects of Bone Substitute and Incubation Mode
(§2) PRP (0.5 mL) aliquots were dispensed into 24-well plates precoated with 1% bovine serum albumin (Sigma, St Louis, Mo.). Thirty microliters of 10% CaCl2 solution (American Reagent Laboratories, Shirley, N.Y.) were added to each well. Experiments were performed in triplicate (n=3) with the addition of bovine thrombin (30, 100, 300 units; GenTrac, Middleton, Wis.) or TRAP (10, 50, 100 μmol/L; Bachem Bioscience Inc, King of Prussia, Pa.). At 30 minutes, if still attached, the clots were gently released from the sides of the culture well with a pipette tip. PRP prepared with CaCl2 solution […] the addition of thrombin or TRAP served as the control group.
(§3) Clotting times were monitored by visualization. Clot retraction was determined by measuring the clot diameter at 1, 2, 4, and 24 hours, and the value was normalized against the well diameter. • Preparation of Platelet-Rich Plasma-Bone Substitute Composites with Thrombin Receptor Agonist Peptide-6
(§4) After the optimization of TRAP concentration, experiments were repeated with the addition of 25 or 50 mg of bone substitutes. To minimize nonspecific binding, the culture well (Corning Inc, Corning, N.Y.) was precoated with 1% bovine serum albumin (Sigma) and incubated for 1.5 hours at 37° C. Sterilized BioOss (25 mg, 0.5 to 1.0 mm; Osteohealth, Shirley, N.Y.), AlloGro (25 mg; Ceramed, Lakewood, Colo.), and 45S5 Bioactive Glass (25 mg, 300 μm; Mo-Sci, Rolla, Minn.) were uniformly dispersed within the wells. Fresh PRP (0.5 mL) aliquots were then dispensed into the precoated 24-well plates, and 30 μl of 10% CaCl2 solution (American Reagent Laboratories, Shirley, N.Y.) was added to each well. Experiments were performed in triplicate (n=3) with the addition of TRAP (H2N-Ser-Phe-Leu-Leu-Arg-Asn-NH2) to the wells containing bone substitutes. • Growth Factor Release from Platelet-Rich Plasma Prepared with Thrombin or Thrombin Receptor Agonist Peptide-6

[2] = test system: platelet-rich plasma (PRP); assay: PRP clot retraction (clot diameter normalized against well diameter; released fluid volume)
Experimental: as §2, §3, §4
(§5) The temporal release of growth factors was examined as a function of time and mode of PRP preparation. Specifically, the PRP clotted with thrombin or TRAP was allowed to gel, and all samples were incubated at 37° C. in a humidified environment for up to 14 days. The volume of fluid released from the clot was measured. Growth factor release was assessed at 1, 3, 7, and 14 days. All collected supernatant samples were stored at −70° C. before analysis. • Quantification of Platelet-Derived Growth Factor and Transforming Growth Factor-β

PDGF-AB = PDGF-AB release from PRP clots and PRP composites (sandwich enzyme immunoassay of supernatant); conditions: for effect of media exchange on PDGF release: Group 1 (dynamic mode) versus Group 2 (static mode, less frequent exchange)
Experimental: as §1
(§6) The temporal release of growth factors was examined as a function of bone substitute and mode of sample incubation. Specifically, the PRP composites were allowed to clot, and all samples were incubated at 37° C. and humidified environment for up to 14 days. The media were exchanged for all groups at 1 day after incubation. The volume of fluid released from the clot was measured and equal volume of fresh Dulbecco's Modification of Eagle's Medium (DMEM, Mediatech, Herdon, Va.) without serum was added back to each well. Subsequently, in the dynamic incubation mode (Group 1), the fluid released from the clot was collected and equal volume of fresh DMEM was added back into the well at 3, 7, and 14 days. In the static mode (Group 2), the media was exchanged only at the designated time points (7 and 14 days). All collected supernatant samples were stored at −70° C. prior to analyses. • Quantification of PDGF and TGFβ
Supernatants collected from all time points for both Group 1 and 2 were assayed for PDGF-AB and TGFβ content using diagnostic kits from R & D Systems (Minneapolis, Minn.). Both assays are based on a sandwich enzyme immunoassay technique. The PDGF-AB assay uses a pre-coated microtiter plate with a monoclonal antibody to PDGF-AA. Preparation and dilution of samples and standards were performed as directed by the manufacturer. Both the standards and the samples were incubated for 3 hours at room temperature. The plate was washed with buffer and a conjugated antibody to PDGF-BB was added to the wells and incubated at room temperature for an additional 1 hour. The plate was then washed and substrate added for 20 minutes at room temperature. The reaction was stopped and absorbance was determined at 450 nm using a spectrophotometer (SpectraFluor Plus, Tecan, Maennedorf, Switzerland). A standard curve was generated and the PDGF-AB levels (pg/ml) of each sample were determined. The total amount of growth factor was calculated based on the amount of supernatant obtained after clot retraction.
as §5
Supernatants were assayed for PDGF-AB and TGFβ content using diagnostic kits from R & D Systems (Minneapolis, Minn.). Both assays are based on a sandwich enzyme immunoassay technique. The PDGF-AB assay used a precoated microtiter plate with a monoclonal antibody to PDGF-AA. Preparation and dilution of samples and standards were performed as directed by the manufacturer. Both the standards and the samples were incubated for 3 hours at room temperature. […]

TGFβ = TGFβ release from PRP clots and PRP composites (enzyme immunoassay of supernatant); conditions: for TGFβ release/retention post clotting, comparison between groups: day 1 post clotting, p<0.05
Experimental: as §1, §6
TGFβ was assayed with a similar enzyme immunoassay technique. A dilution series of TGFβ standards was prepared in 100 μl volumes in 96-well microtiter plates coated with TGFβ receptor Type II. The sample supernatants (0.025 ml) obtained from PRP composites were diluted with 0.075 ml of phosphate buffer saline solution. The samples were then activated with 0.1 ml of 1.0 N HCl incubated at room temperature for 10 minutes, neutralized by an addition of 0.1 ml of 1.2 N NaOH/0.5 M HEPES (N-[2-hydroxyethyl] piperazine-N-[2-ethanesulfonic acid]). The supernatant fractions were then incubated for 3 hours at room temperature. The wells were then washed and enzyme-conjugated polyclonal antibody to TGFβ1 was added and allowed to incubate for 1.5 hours at room temperature. The reaction was stopped and absorbance was measured at 450 nm using a spectrophotometer (SpectraFluor Plus, Tecan, Maennedorf, Switzerland). A standard curve was generated and the TGFβ levels (pg/ml) of each sample were determined. The total amount of growth factors was calculated based on the amount of supernatant obtained after clot retraction. • Statistical Analyses
as §5
TGFβ was assayed with a similar enzyme immunoassay technique. A dilution series of TGFβ standards were prepared in 96-well microtiter plates coated with TGFβ receptor Type II. The sample supernatants (0.025 mL) obtained from PRP composites were diluted with 0.075 mL of phosphate-buffered saline solution. […]

H2N-Ser-Phe-Leu-Leu-Arg-Asn-NH2 [TRAP, reference compound]
time for the clot to completely solidify ([1]; Example 1, TRAP at 100 μm): 14.5 min | time for the clot to completely solidify ([1]; Example 2, TRAP at 100 μmol/L): 9.25 min | decrease in the clot diameter ([2]; TRAP 50 μmol/L): 15% | decrease in the clot diameter ([2]; TRAP 100 μmol/L): 15% | PDGF-AB released (PDGF-AB; Example 1, at 7 days): 11,624 pg | PDGF-AB released (PDGF-AB; Example 1, day 1): 20,642 pg | PDGF-AB released (PDGF-AB; Example 2, at 7 days, mean±SD): 2,797.6±612.0 pg | PDGF-AB released (PDGF-AB; Example 2, day 1, mean±SD): 20,642±1,170.0 pg | effect of media exchange on PDGF release (PDGF-AB): no statistically significant effects; also recorded: No significant difference | TGFβ retained compared to the thrombin group (TGFβ; Example 1, time not stated (day 1 context)): 39.2% | TGFβ retained, more than the thrombin group (TGFβ; Example 2, at 72 hours): 39.2% | TGFβ release/retention post clotting, comparison between groups (TGFβ): significantly lower levels

thrombin: bovine thrombin (GenTrac), serine protease used as standard PRP clotting agent
time to complete polymerization of PRP ([1]; Example 1, 30 units of thrombin added to 0.5 ml PRP mixture): 6 min | time to clot formation ([1]; Example 1, 100 units thrombin, 0.5 ml PRP): 1.25 min | time to clot formation ([1]; Example 1, 300 units thrombin, 0.5 ml PRP): 1.25 min | time to complete polymerization of PRP ([1]; Example 2, 30 units of thrombin added to 0.5 mL PRP mixture): 6 min | time to clot formation ([1]; Example 2, 100 units thrombin): 3.25 min | clot retraction ([2]; 30 units of thrombin): 34% | shrinkage of the clot (clot retraction) ([2]; 100 units of thrombin, all time points): 43% | volume of supernatant released from the clot ([2]; all time points, comparison between groups): largest release volume | clot retraction ([2]; at 24 hours, TRAP with 25 mg bone substitute, thrombin 100 units): 56%±3% and 56% | PDGF-AB released (PDGF-AB; Example 1, at 7 days): 5,068 pg | PDGF-AB released (PDGF-AB; Example 1, day 1): 32,526 pg | PDGF-AB released (PDGF-AB; Example 2, at 7 days, mean±SD): 1,738.2 ±443.0 pg | PDGF-AB released (PDGF-AB; Example 2, day 1, mean±SD): 32,526±6,752.4 pg | effect of media exchange on PDGF release (PDGF-AB): No significant difference | effect of media exchange on PDGF release (PDGF-AB; listed as Thrombin): no statistically significant effects | PDGF-AB release, more than the TRAP group (PDGF-AB; day 1): approximately 36% | TGFβ release from the clot after 14 days (TGFβ; after 14 days): all of the TGFβ present in the original PRP thrombin clots had been released; also recorded: all the TGFβ in thrombin clots was released | TGFβ release/retention post clotting, comparison between groups (TGFβ): highest amount | TGFβ already released from the clot (TGFβ; within 24 hours, of total TGFβ in original PRP): over 81.4%
